Test results reported in ChEMBL document CHEMBL3044676, “Effect of Antibiotics on Formation of Aerial Mycelium and Production of Phytotoxins in Streptomyces spp” (2003).
Activity calls are given as the source filed them. The rule behind the calls is not given here.

How the values were obtained:
[1] = test system: Streptomyces scabiei; test: Antimicrobial activity against Streptomyces scabiei ATCC 4917314 assessed as inhibition of aerial mycelial growth at 4 ug/disk after 5 days by paper disk method; format: functional; details: for zone of inhibition at 4 µg/disc: ATCC 4917314, 120 h, read-out: DIZ
[2] = test system: Streptomyces scabiei; test: Antimicrobial activity against Streptomyces scabiei ATCC 4917314 assessed as inhibition of aerial mycelial growth at 0.04 ug/disk after 5 days by paper disk method; format: functional; details: for zone of inhibition at 0.04 µg/disc: ATCC 4917314, 120 h, read-out: DIZ
[3] = test system: Streptomyces scabiei; test: Growth stimulation of Streptomyces scabiei ATCC 4917314 at 4 ug/disk after 5 days by paper disk method; format: functional
[4] = test system: Streptomyces alboniger; test: Antimicrobial activity against Streptomyces alboniger IFO 12738 assessed as inhibition of aerial mycelial growth at 4 ug/disk after 5 days by paper disk method; format: functional; details: for zone of inhibition at 4 µg/disc: IFO 12738, 120 h, read-out: DIZ
[5] = test system: Streptomyces alboniger; test: Antimicrobial activity against Streptomyces alboniger IFO 12738 assessed as inhibition of aerial mycelial growth at 0.4 ug/disk after 5 days by paper disk method; format: functional; details: for zone of inhibition at 0.4 µg/disc: IFO 12738, 120 h, read-out: DIZ
[6] = test system: Streptomyces acidiscabies; test: Antimicrobial activity against Streptomyces acidiscabies ATCC 4900315 assessed as inhibition of aerial mycelial growth at 0.04 ug/disk after 5 days by paper disk method; format: functional
[7] = test system: Streptomyces acidiscabies; test: Antimicrobial activity against Streptomyces acidiscabies ATCC 4900315 assessed as inhibition of aerial mycelial growth at 4 ug/disk after 5 days by paper disk method; format: functional; details: for zone of inhibition at 4 µg/disc: ATCC 4900315, 120 h, read-out: DIZ
[8] = test system: Streptomyces alboniger; test: Antimicrobial activity against Streptomyces alboniger IFO 12738 assessed as inhibition of aerial mycelial growth at 0.04 ug/disk after 5 days by paper disk method; format: functional, organism-based
[9] = test system: Streptomyces scabiei; test: Antimicrobial activity against Streptomyces scabiei ATCC 4917314 assessed as inhibition of aerial mycelial growth at 0.40 ug/disk after 5 days by paper disk method; format: functional; details: for zone of inhibition at 0.4 µg/disc: ATCC 4917314, 120 h, read-out: DIZ
[10] = test system: Streptomyces acidiscabies; test: Antimicrobial activity against Streptomyces acidiscabies ATCC 4900315 assessed as inhibition of aerial mycelial growth at 0.4 ug/disk after 5 days by paper disk method; format: functional; details: for zone of inhibition at 0.4 µg/disc: ATCC 4900315, 120 h, read-out: DIZ
[11] = test system: Streptomyces scabiei; test: Antimicrobial activity against Streptomyces scabiei ATCC 4917314 assessed as inhibition of growth at 4 ug/disk after 5 days by paper disk method; format: functional; details: ATCC 4917314, 120 h, read-out: DIZ
[12] = test system: Streptomyces alboniger; test: Antimicrobial activity against Streptomyces alboniger IFO 12738 assessed as inhibition of growth at 4 ug/disk after 5 days by paper disk method; format: functional; details: IFO 12738, 120 h, read-out: DIZ
[13] = test system: Streptomyces scabiei; test: Growth stimulation of Streptomyces scabiei ATCC 4917314 at 0.4 ug/disk after 5 days by paper disk method; format: functional; details: ATCC 4917314, 120 h, read-out: DIZ
[14] = test system: Streptomyces acidiscabies; test: Antimicrobial activity against Streptomyces acidiscabies ATCC 4900315 assessed as inhibition of growth at 4 ug/disk after 5 days by paper disk method; format: functional; details: for zone of inhibition at 4 µg/disc: ATCC 4900315, 120 h, read-out: DIZ
[15] = test system: Streptomyces scabiei; test: Antimicrobial activity against Streptomyces scabiei ATCC 4917314 assessed as inhibition of growth at 0.4 ug/disk after 5 days by paper disk method; format: functional; details: for zone of inhibition at 0.4 µg/disc: ATCC 4917314, 120 h, read-out: DIZ
[16] = test system: Streptomyces alboniger; test: Antimicrobial activity against Streptomyces alboniger IFO 12738 assessed as inhibition of growth at 0.4 ug/disk after 5 days by paper disk method; format: functional; details: IFO 12738, 120 h, read-out: DIZ

SMILES | diameter of the inhibition zone (DIZ) [2] | diameter of the inhibition zone (DIZ) [4] | diameter of the inhibition zone (DIZ) [5] | diameter of the inhibition zone (DIZ) [6] | zone of inhibition at 4 µg/disc [7] [mm] | diameter of the inhibition zone (DIZ) [8] | diameter of the inhibition zone (DIZ) [9] | diameter of the inhibition zone (DIZ) [10] | zone of inhibition at 4 µg/disc [1] [mm] | zone of inhibition at 4 µg/disc [4] [mm] | zone of inhibition at 0.4 µg/disc [9] [mm] | zone of inhibition at 4 µg/disc [11] [mm] | zone of inhibition at 4 µg/disc [12] [mm] | diameter of the inhibition zone (DIZ) [7] | zone of inhibition at 0.04 µg/disc [2] [mm] | zone of inhibition at 4 µg/disc [14] [mm] | zone of inhibition at 0.4 µg/disc [10] [mm] | zone of inhibition at 0.4 µg/disc [15] [mm] | zone of inhibition at 0.4 µg/disc [5] [mm] | zone of inhibition at 0.4 µg/disc [16] [mm] | other results
CO/N=C(\C(=O)N[C@@H]1C(=O)N2C(C(=O)O)=C(COC(C)=O)CS[C@H]12)c1csc(N)n1 [CEFOTAXIME] | inactive | inactive | inactive | inactive | 15 | inactive | inactive | inactive |  |  |  |  |  |  |  |  |  |  |  |  | diameter of the inhibition zone (DIZ) [1]: inactive; zone of inhibition at 4 µg/disc ([3]; Streptomyces scabiei, ATCC 4917314, 120 h, read-out: DIZ): 22 mm
O=C(N[C@H](CO)[C@H](O)c1ccc([N+](=O)[O-])cc1)C(Cl)Cl [CHLORAMPHENICOL] | inactive |  | inactive | inactive | 10 | inactive |  | inactive | 29 | 44 | 13 | 15 | 16 |  |  |  |  |  |  |  | 
N[C@@H]1CONC1=O [CYCLOSERINE] | inactive | inactive | inactive | inactive |  | inactive | inactive | inactive |  |  |  |  |  | inactive |  |  |  |  |  |  | diameter of the inhibition zone (DIZ) [1]: inactive; Activity [3]: 44 mm; zone of inhibition at 0.4 µg/disc [13]: 24 mm
CO[C@@H]1[C@@H](O[C@@H]2O[C@H](C)[C@@H](O[C@H]3C[C@@](C)(O)[C@@H](OC(=O)CC(C)C)[C@H](C)O3)[C@H](N(C)C)[C@H]2O)[C@@H](CC=O)C[C@@H](C)[C@@H](O)/C=C/C=C/C[C@@H](C)OC(=O)C[C@H]1OC(C)=O [JOSAMYCIN] |  |  | inactive | inactive | 17 | inactive |  |  | 29 | 15 | 17 | 21 | 14 |  | 15 | 10 | 13 | 11 |  |  | 
CCC[C@@H]1C[C@@H](C(=O)N[C@@H]([C@H]2O[C@H](SC)[C@H](O)[C@@H](O)[C@H]2O)[C@@H](C)O)N(C)C1 [LINCOMYCIN] |  |  |  | inactive |  |  |  | inactive | 40 | 40 | 34 |  | 12 | inactive | 20 |  |  |  | 18 |  | 
CO[C@@H]1[C@@H](OC(N)=O)[C@@H](O)[C@H](Oc2ccc3c(O)c(NC(=O)c4ccc(O)c(CC=C(C)C)c4)c(=O)oc3c2C)OC1(C)C [NOVOBIOCIN] | inactive |  |  | inactive | 39 | inactive |  |  | 44 |  | 28 | 26 | 21 |  |  | 18 | 14 | 17 | 11 |  | 
CN(C)[C@@H]1C(O)=C(C(N)=O)C(=O)[C@@]2(O)C(O)=C3C(=O)c4c(O)cccc4[C@@](C)(O)[C@H]3[C@H](O)[C@@H]12 [OXYTETRACYCLINE] |  | inactive | inactive | inactive |  | inactive |  |  | 37 |  | 13 | 13 |  | inactive | 10 | 34 | 16 |  |  |  | 
CO[C@H]1/C=C/O[C@@]2(C)Oc3c(C)c(O)c4c(O)c(cc(O)c4c3C2=O)NC(=O)/C(C)=C\C=C\[C@H](C)[C@H](O)[C@@H](C)[C@@H](O)[C@@H](C)[C@H](OC(C)=O)[C@@H]1C [RIFAMYCIN] | inactive |  |  | inactive | 12 | inactive | inactive | inactive | 11 |  |  |  |  |  |  |  |  |  | 21 | 11 | diameter of the inhibition zone (DIZ) [14]: inactive; diameter of the inhibition zone (DIZ) [15]: inactive
CN[C@@H]1[C@H](O[C@H]2[C@H](O[C@H]3[C@H](O)[C@@H](O)[C@H](N=C(N)N)[C@@H](O)[C@@H]3N=C(N)N)O[C@@H](C)[C@]2(O)C=O)O[C@@H](CO)[C@H](O)[C@H]1O [STREPTOMYCIN] | inactive | inactive | inactive | inactive |  | inactive |  | inactive | 28 |  | 19 | 18 |  | inactive |  |  |  | 13 |  | 15 | 
C=C(NC(=O)C(=C)NC(=O)c1csc(C2=N[C@@H]3c4csc(n4)[C@H]4NC(=O)c5csc(n5)[C@H]([C@](C)(O)[C@@H](C)O)NC(=O)[C@H]5CSC(=N5)/C(=C/C)NC(=O)[C@H]([C@@H](C)O)NC(=O)c5csc(n5)[C@]3(CC2)NC(=O)[C@H](C)NC(=O)C(=C)NC(=O)[C@H](C)NC(=O)[C@H]([C@@H](C)CC)N[C@@H]2C=Cc3c([C@H](C)O)cc(nc3[C@H]2O)C(=O)O[C@@H]4C)n1)C(N)=O [THIOSTREPTON] | inactive | inactive | inactive | inactive | 24 | inactive | inactive |  | 12 |  |  |  |  |  |  | 13 | 11 |  |  | 14 | 
